Reference: patent US8883841B2, “Oncogenic ras-specific cytotoxic compound and methods of use thereof” (The Board of Regents of the University of Texas System, priority 2005, dated 2014)
Like-named read-outs stand apart in the source and are kept apart here.

Assays:
[1] = tested on: panel of 60 cancer cell lines; assay: NCI Developmental Therapeutics Program in-vitro testing, panel of 60 cancer cell lines (whole panel); assay type: cell-based; details: leukemia, non small lung, colon, melanoma, ovarian, renal, breast
T29Kt1 cells = details: Table 1; value is the negative log10 of mol/L
H460 cells = details: Table 1, value is the negative log10 of mol/L
UACC-62 = assay: NCI in-vitro testing, UACC-62 (Melanoma)
KM12 = assay: NCI in-vitro testing, KM12 (Colon Cancer); details: KM12
SF-268 = assay: NCI in-vitro testing, SF-268 (CNS Cancer)
A498 = assay: NCI in-vitro testing, A498 (Renal Cancer)
ACHN = assay: NCI in-vitro testing, ACHN (Renal Cancer)
HL-60(TB) = assay: NCI in-vitro testing, HL-60(TB) (Leukemia)
UO-31 = assay: NCI in-vitro testing, UO-31 (Renal Cancer)
SW-620 = assay: NCI in-vitro testing, SW-620 (Colon Cancer)
RXF 393 = assay: NCI in-vitro testing, RXF 393 (Renal Cancer)
BT-549 = assay: NCI in-vitro testing, BT-549 (Breast Cancer)
DU-145 = assay: NCI in-vitro testing, DU-145 (Prostate Cancer)
[2] = In vivo toxicity assay in tumor-bearing nude mice
EKVX = assay: NCI in-vitro testing, EKVX (Non-Small Cell Lung Cancer)

O=Cc1cn(Cc2cccc(Cl)c2)c2ccccc12 [Oncrasin K027, 1-(3-chlorobenzyl)-1H-indole-3-carbaldehyde]
anticancer spectrum in NCI panel [1]: active in a number of cancer cell lines
IC50 in T29k cells (T29Kt1 cells): 6.43
IC50 in H460 cells (H460 cells; listed as K27): 7
IC50 in H460 cells (H460 cells): 8.43
GI50 (UACC-62; Homo sapiens, UACC-62): 0.0451 µM
CC50 (UACC-62; Homo sapiens, UACC-62, read-out: LC50): 11.4 µM
TGI (UACC-62; UACC-62): 8.97E−7 Molar
Percent Growth (UACC-62; UACC-62, Log10 Concentration −4.0 Molar): −94%
Percent Growth (UACC-62; UACC-62, Log10 Concentration −5.0 Molar): −47%
Percent Growth (UACC-62; UACC-62, Log10 Concentration −6.0 Molar): −2%
Percent Growth (UACC-62; UACC-62, Log10 Concentration −7.0 Molar): 35%
Percent Growth (UACC-62; UACC-62, Log10 Concentration −8.0 Molar): 79%
TGI (KM12): 4.15E−5 Molar
Percent Growth (KM12; Log10 Concentration −4.0 Molar): −54%
Percent Growth (KM12; Log10 Concentration −5.0 Molar): 87%
Percent Growth (KM12; Log10 Concentration −6.0 Molar): 102%
Percent Growth (KM12; Log10 Concentration −7.0 Molar): 113%
Percent Growth (KM12; Log10 Concentration −8.0 Molar): 108%
GI50 (SF-268; Homo sapiens, SF-268): 1.24 µM
CC50 (SF-268; Homo sapiens, SF-268, read-out: LC50): > 100 µM
TGI (SF-268; SF-268): 4.58E−5 Molar
Percent Growth (SF-268; SF-268, Log10 Concentration −4.0 Molar): −30%
Percent Growth (SF-268; SF-268, Log10 Concentration −5.0 Molar): 58%
Percent Growth (SF-268; SF-268, Log10 Concentration −6.0 Molar): 94%
Percent Growth (SF-268; SF-268, Log10 Concentration −7.0 Molar): 93%
Percent Growth (SF-268; SF-268, Log10 Concentration −8.0 Molar): 106%
TGI (A498; A498): 3.33E−8 Molar
Percent Growth (A498; A498, Log10 Concentration −4.0 Molar): −94%
Percent Growth (A498; A498, Log10 Concentration −5.0 Molar): −95%
Percent Growth (A498; A498, Log10 Concentration −6.0 Molar): −87%
Percent Growth (A498; A498, Log10 Concentration −7.0 Molar): −66%
Percent Growth (A498; A498, Log10 Concentration −8.0 Molar): 61%
GI50 (A498; Homo sapiens, A498): 0.0124 µM
CC50 (A498; Homo sapiens, A498, read-out: LC50): 0.089 µM
TGI (ACHN): 2.25E−5 Molar
GI50 (ACHN; Homo sapiens): 2.88 µM
CC50 (ACHN; Homo sapiens, read-out: LC50): > 100 µM
Percent Growth (ACHN; Log10 Concentration −4.0 Molar): −30%
Percent Growth (ACHN; Log10 Concentration −5.0 Molar): 16%
Percent Growth (ACHN; Log10 Concentration −6.0 Molar): 76%
Percent Growth (ACHN; Log10 Concentration −7.0 Molar): 92%
Percent Growth (ACHN; Log10 Concentration −8.0 Molar): 99%
TGI (HL-60(TB); HL-60(TB)): 1.28E−5 Molar
Percent Growth (HL-60(TB); HL-60(TB), Log10 Concentration −4.0 Molar): −78%
Percent Growth (HL-60(TB); HL-60(TB), Log10 Concentration −5.0 Molar): 9%
Percent Growth (HL-60(TB); HL-60(TB), Log10 Concentration −6.0 Molar): 89%
Percent Growth (HL-60(TB); HL-60(TB), Log10 Concentration −7.0 Molar): 85%
Percent Growth (HL-60(TB); HL-60(TB), Log10 Concentration −8.0 Molar): 95%
GI50 (HL-60(TB); Homo sapiens, HL-60): 2.1 µM
CC50 (HL-60(TB); Homo sapiens, HL-60, read-out: LC50): 48.1 µM
GI50 (UO-31; Homo sapiens, UO-31): 1.58 µM
CC50 (UO-31; Homo sapiens, UO-31, read-out: LC50): > 100 µM
TGI (UO-31; UO-31): 1.55E−6 Molar
Percent Growth (UO-31; UO-31, Log10 Concentration −4.0 Molar): −42%
Percent Growth (UO-31; UO-31, Log10 Concentration −5.0 Molar): 10%
Percent Growth (UO-31; UO-31, Log10 Concentration −6.0 Molar): 50%
Percent Growth (UO-31; UO-31, Log10 Concentration −7.0 Molar): 80%
Percent Growth (UO-31; UO-31, Log10 Concentration −8.0 Molar): 90%
GI50 (SW-620; Homo sapiens, SW-620): 0.571 µM
CC50 (SW-620; Homo sapiens, SW-620, read-out: LC50): > 100 µM
TGI (SW-620; SW-620): 1.80E−5 Molar
Percent Growth (SW-620; SW-620, Log10 Concentration −4.0 Molar): −46%
Percent Growth (SW-620; SW-620, Log10 Concentration −5.0 Molar): 16%
Percent Growth (SW-620; SW-620, Log10 Concentration −6.0 Molar): 39%
Percent Growth (SW-620; SW-620, Log10 Concentration −7.0 Molar): 83%
Percent Growth (SW-620; SW-620, Log10 Concentration −8.0 Molar): 84%
GI50 (RXF 393; Homo sapiens, RXF 393): < 0.01 µM
CC50 (RXF 393; Homo sapiens, RXF 393, read-out: LC50): 23.2 µM
TGI (RXF 393; RXF 393): 2.44E−7 Molar
Percent Growth (RXF 393; RXF 393, Log10 Concentration −4.0 Molar): −85%
Percent Growth (RXF 393; RXF 393, Log10 Concentration −5.0 Molar): −30%
Percent Growth (RXF 393; RXF 393, Log10 Concentration −6.0 Molar): −12%
Percent Growth (RXF 393; RXF 393, Log10 Concentration −7.0 Molar): 7%
Percent Growth (RXF 393; RXF 393, Log10 Concentration −8.0 Molar): 31%
TGI (BT-549; BT-549): 1.73E−5 Molar
Percent Growth (BT-549; BT-549, Log10 Concentration −4.0 Molar): −85%
Percent Growth (BT-549; BT-549, Log10 Concentration −5.0 Molar): 28%
Percent Growth (BT-549; BT-549, Log10 Concentration −6.0 Molar): 97%
Percent Growth (BT-549; BT-549, Log10 Concentration −7.0 Molar): 116%
Percent Growth (BT-549; BT-549, Log10 Concentration −8.0 Molar): 110%
GI50 (BT-549; Homo sapiens, BT-549): 4.82 µM
CC50 (BT-549; Homo sapiens, BT-549, read-out: LC50): 488 µM
TGI (DU-145; DU-145): 2.78E−5 Molar
Percent Growth (DU-145; DU-145, Log10 Concentration −4.0 Molar): −53%
Percent Growth (DU-145; DU-145, Log10 Concentration −5.0 Molar): 42%
Percent Growth (DU-145; DU-145, Log10 Concentration −6.0 Molar): 98%
Percent Growth (DU-145; DU-145, Log10 Concentration −7.0 Molar): 108%
Percent Growth (DU-145; DU-145, Log10 Concentration −8.0 Molar): 108%
GI50 (DU-145; Homo sapiens, DU-145): 7.25 µM
CC50 (DU-145; Homo sapiens, DU-145, read-out: LC50): 93.3 µM
serum ALT, AST, and creatinine levels ([2]; 2 days after the last treatment): within the normal range
histopathologic examination of organs ([2]; lung, heart, stomach, small intestine, liver, spleen, pancreas, kidney): no significant lesions
blood cell counts ([2]; red blood cells, white blood cells, platelets): all in the normal ranges
body weights ([2]; vs solvent): No difference
TGI (EKVX): 6.47E−5 Molar
GI50 (EKVX; Homo sapiens): 21 µM
CC50 (EKVX; Homo sapiens, read-out: LC50): > 100 µM
Percent Growth (EKVX; Log10 Concentration −4.0 Molar): −22%
Percent Growth (EKVX; Log10 Concentration −5.0 Molar): 94%
Percent Growth (EKVX; Log10 Concentration −6.0 Molar): 107%
Percent Growth (EKVX; Log10 Concentration −7.0 Molar): 105%
Percent Growth (EKVX; Log10 Concentration −8.0 Molar): 103%
